Literature values in patent US8334001B2, “Composition comprising mucilaginous polysaccharides derived from aloe barbadensis and method for obtaining same and use thereof” (Pharmabrand S.A., priority 2007, dated 2012).
Where two headings read alike, the source gives them in different places.

How the values were obtained:
[1] = test system: TNF-alfa
[2] = test system: necrosis factor, kappa B

Substance	effect on TNF-alfa [1]	activation of the necrosis factor, kappa B ([2]; concentrations of only 0.015% of the aloeride)	activation of the necrosis factor, kappa B ([2]; concentration of 200 μg/ml)
aloeride	increases	the effect is shown	
acemannan			produces an activation
